Assay results reported in patent US20110293676A1, “Oral Cephalotaxine Dosage Forms” (ChemGenex Pharmaceuticals, Inc., priority 2007, published 2011).

Key:
[1] = Observation for mortality, morbidity and adverse events in the mouse pharmacokinetic study; type: in vivo, male CD-1 mice; conditions: single dose 0.41 or 1.6 mg/kg p.o. or s.c., observed until 7 days after last blood collection
Description: Animals were observed twice daily (in the morning and in the evening) for mortality and morbidity beginning at the time of arrival from the vendor until the scheduled sacrifice 7 days after the last blood collection. Prior to dosing, each animal was removed from its cage and observed for signs of poor health and abnormal behavior. All animals were weighed prior to dosing.
No unscheduled sacrifices or deaths were recorded. Animals were sacrificed via CO2 7 days after the completion of blood draws.

[2] = Pharmacokinetic study of homoharringtonine in mice, oral vs subcutaneous, plasma HHT content; type: in vivo, male CD-1 mice; design: Tmax / t-½: unit not given here; conditions: for Concentration of HHT in mouse sodium heparin plasma: single dose; for BA po/sc % / Cmax / Tmax / AUC / t-½: mouse; for AUC / t-½: WINNONLIN NCA model
Description: To evaluate the potential for the development of an oral formulation of homoharringtonine, a pharmacokinetic study was performed in mice. Homoharringtonine was given, at 2 doses, by either oral or subcutaneous routes to male CD-1 mice. After a single administration, blood was collected from the tail vein and analyzed for homoharringtonine content. The animal dosing was performed by Murigenics (Berkeley, Calif.) and the analysis of sera was performed by PHARMout (Sunnyvale, Calif.). […] This bioavailability is considered very good.
Homoharringtonine was manufactured by Stragen for ChemGenex Pharmaceuticals. 5 mg of lyophilized homoharringtonine was provided in a glass vial and was stable at room temperature. The vehicle was 0.9% sodium chloride supplied with the test agent in a separate vial. 27 male CD-1 mice, 8-10 weeks old (Charles River Laboratories) were used for this study. 24 mice were used for dosing, and 3 mice were used as naïve controls.
On the day of the study, 5 ml of saline were added to the 5 mg vial to make a stock of 1 mg/ml HHT. The amount administered for each mouse was based on weight, using a dose volume of 4 ml/kg. The dosing administration was performed according to Table 1.
Test subjects were dosed once. The enzyme blocker was provided in two separate tubes (A & B) Immediately prior to blood collection, 20 μL each of A and B were aliquoted into a small tube (to yield 40 μL of enzyme inhibitor).
Blood from 3 naïve mice was collected for a 0 timepoint. Approximately 50 μL of whole blood per animal (n=3 mice per time point) was collected into heparinized capillary tubes. Heparanized blood was transferred into tubes containing 40 μL of enzyme inhibitor. Samples were clearly marked by PK timepoint and group. Blood was stored on ice until centrifugation. There were 6 mice treated at each dose, but blood was pooled from 3 mice per time point so that each mouse had blood collected at every other timepoint. There were the following timepoints: 0, 15 min, 30 min, 2 hr, 4 hr and 8 hr after the administration of homoharringtonine. There were three samples collected for the T=0 from naïve mice. There were 5 samples collected for each dose, corresponding to the timepoints, 15 min, 30 min, 2 hr, 4 hr and 8 hr after the administration of homoharrigntonine. There were 2 doses for each route, and 2 routes of administration, so there were a total of 20 samples collected from treated mice. Plasma tubes were spun to prepare plasma, frozen to −80° C. and shipped on dry ice to PHARMout for bioanalytical work up.
The Cmax of the oral doses was 4 and 30 ng/mL for the 410 and 1600 μg/kg oral doses, respectively.

## COC(=O)C[C@](O)(CCCC(C)(C)O)C(=O)O[C@@H]1C(OC)=C[C@]23CCCN2CCc2cc4c(cc2[C@H]13)OCO4 [HHT, cephalotaxine, 4-methyl-2-hydroxy-2-(4-hydroxy-4-methylpentyl) butanediocate ester]
[1]
  mortality and morbidity: No mortalities or signs of morbidity were observed
[2]; Group 1: 0.41 mg/kg p.o., 15 min
  Concentration of HHT in mouse sodium heparin plasma: 3.54 ng/mL
[2]; Group 1: 0.41 mg/kg p.o., 30 min
  Concentration of HHT in mouse sodium heparin plasma: 3.59 ng/mL
[2]; Group 1: 0.41 mg/kg p.o., 60 min
  Concentration of HHT in mouse sodium heparin plasma: 3.85 ng/mL
[2]; Group 1: 0.41 mg/kg p.o., 120 min
  Concentration of HHT in mouse sodium heparin plasma: 4.29 ng/mL
[2]; Group 1: 0.41 mg/kg p.o., 240 min
  Concentration of HHT in mouse sodium heparin plasma: 1.81 ng/mL
[2]; Group 1: 0.41 mg/kg p.o., 480 min
  Concentration of HHT in mouse sodium heparin plasma: 1.65 ng/mL
[2]; Group 2: 0.41 mg/kg s.c., 15 min
  Concentration of HHT in mouse sodium heparin plasma: 20.4 ng/mL
[2]; Group 2: 0.41 mg/kg s.c., 30 min
  Concentration of HHT in mouse sodium heparin plasma: 11.2 ng/mL
[2]; Group 2: 0.41 mg/kg s.c., 60 min
  Concentration of HHT in mouse sodium heparin plasma: 6.20 ng/mL
[2]; Group 2: 0.41 mg/kg s.c., 120 min
  Concentration of HHT in mouse sodium heparin plasma: 3.59 ng/mL
[2]; Group 2: 0.41 mg/kg s.c., 240 min
  Concentration of HHT in mouse sodium heparin plasma: 2.44 ng/mL
[2]; Group 2: 0.41 mg/kg s.c., 480 min
  Concentration of HHT in mouse sodium heparin plasma: BQL (Below the quantification limit (1.00 ng/mL))
[2]; Group 3: 1.6 mg/kg p.o., 15 min
  Concentration of HHT in mouse sodium heparin plasma: 6.58 ng/mL
[2]; Group 3: 1.6 mg/kg p.o., 30 min
  Concentration of HHT in mouse sodium heparin plasma: 8.87 ng/mL
[2]; Group 3: 1.6 mg/kg p.o., 60 min
  Concentration of HHT in mouse sodium heparin plasma: 29.9 ng/mL
[2]; Group 3: 1.6 mg/kg p.o., 120 min
  Concentration of HHT in mouse sodium heparin plasma: 9.18 ng/mL
[2]; Group 3: 1.6 mg/kg p.o., 240 min
  Concentration of HHT in mouse sodium heparin plasma: 5.52 ng/mL
[2]; Group 3: 1.6 mg/kg p.o., 480 min
  Concentration of HHT in mouse sodium heparin plasma: 4.19 ng/mL
[2]; Group 4: 1.6 mg/kg s.c., 15 min
  Concentration of HHT in mouse sodium heparin plasma: 54.4 ng/mL
[2]; Group 4: 1.6 mg/kg s.c., 30 min
  Concentration of HHT in mouse sodium heparin plasma: 15.4 ng/mL
[2]; Group 4: 1.6 mg/kg s.c., 60 min
  Concentration of HHT in mouse sodium heparin plasma: 35.3 ng/mL
[2]; Group 4: 1.6 mg/kg s.c., 120 min
  Concentration of HHT in mouse sodium heparin plasma: 6.38 ng/mL
[2]; Group 4: 1.6 mg/kg s.c., 240 min
  Concentration of HHT in mouse sodium heparin plasma: 7.72 ng/mL
[2]; Group 4: 1.6 mg/kg s.c., 480 min
  Concentration of HHT in mouse sodium heparin plasma: 3.10 ng/mL
[2]; 410 ug/kg, oral compared with subcutaneous dosing
  BA po/sc %: 76%
[2]; 1600 ug/kg, oral based on the subcutaneous dose
  BA po/sc %: 77%
[2]; po, 410 ug/kg (1.2 mg/m2)
  Cmax: 4 ng/mL
  Tmax: 120
  AUC: 1217 ng·min/mL
  t-½: 297
[2]; po, 1600 ug/kg (4.8 mg/m2)
  Cmax: 30 ng/mL
  Tmax: 60
  AUC: 3966 ng·min/mL
  t-½: 341
[2]; sc, 410 ug/kg (1.2 mg/m2)
  Cmax: 20 ng/mL
  Tmax: 15
  AUC: 1599 ng·min/mL
  t-½: 215
[2]; sc, 1600 ug/kg (4.8 mg/m2)
  Cmax: 54 ng/mL
  Tmax: 15
  AUC: 5087 ng·min/mL
  t-½: 306
